Data from ChEMBL document CHEMBL1146991, “The synthesis of highly potent, selective, and water-soluble agonists at the human adenosine A3 receptor” (Bioorg Med Chem Lett, 2006).
≈ marks a conversion by molar mass, not a printed value.

Legend:
[1] = biological target: T1, Adenosine receptor A3 (Homo sapiens, UniProt P0DMS8); test: Binding affinity to human adenosine A3 receptor
T1 sequence (P0DMS8 whole entry): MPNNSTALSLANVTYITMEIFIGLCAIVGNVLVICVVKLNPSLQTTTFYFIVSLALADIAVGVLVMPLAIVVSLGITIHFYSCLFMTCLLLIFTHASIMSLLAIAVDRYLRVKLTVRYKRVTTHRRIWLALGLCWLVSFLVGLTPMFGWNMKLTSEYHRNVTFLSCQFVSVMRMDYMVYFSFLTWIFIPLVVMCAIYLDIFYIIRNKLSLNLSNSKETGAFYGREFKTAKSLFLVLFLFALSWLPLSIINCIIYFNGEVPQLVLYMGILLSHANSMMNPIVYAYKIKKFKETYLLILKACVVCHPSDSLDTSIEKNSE

[2] = biological target: Adenosine receptors; A1 & A3 (Homo sapiens) (UniProt P30542+P0DMS8); test: Selectivity for human adenosine A3 receptor over human adenosine A1 receptor; type: protein assay
[3] = biological target: Adenosine receptor A2a (Homo sapiens) (UniProt P29274); test: Increase of cAMP production in HEK293 cell expressing human adenosine A2A receptor at 3 uM; type: functional, cell-based
[4] = Solubility in citrate buffer at pH 4; type: physicochemical
[5] = biological target: T1, Adenosine receptor A3; test: Inhibition of isoproterenol-induced increase of cAMP in HEK293 cell expressing human adenosine A3 receptor; type: functional, cell-based
[6] = biological target: T2, Adenosine receptor A2b (Homo sapiens) (UniProt P29275); test: Increase of cAMP production in HEK293 cell expressing human adenosine A2B receptor at 3 uM; type: functional, cell-based
T2 sequence (whole entry): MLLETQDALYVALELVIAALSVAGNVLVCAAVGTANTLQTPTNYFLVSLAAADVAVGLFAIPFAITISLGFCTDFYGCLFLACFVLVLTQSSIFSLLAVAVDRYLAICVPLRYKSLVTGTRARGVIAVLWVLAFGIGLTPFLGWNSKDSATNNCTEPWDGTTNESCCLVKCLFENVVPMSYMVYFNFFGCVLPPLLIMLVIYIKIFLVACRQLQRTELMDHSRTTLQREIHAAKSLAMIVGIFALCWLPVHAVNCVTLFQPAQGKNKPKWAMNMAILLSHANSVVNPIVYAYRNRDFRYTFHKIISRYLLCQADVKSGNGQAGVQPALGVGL

Adenosine receptors; A1 & A3 (Homo sapiens), sequence (P30542 whole entry, looked up, one chain of several): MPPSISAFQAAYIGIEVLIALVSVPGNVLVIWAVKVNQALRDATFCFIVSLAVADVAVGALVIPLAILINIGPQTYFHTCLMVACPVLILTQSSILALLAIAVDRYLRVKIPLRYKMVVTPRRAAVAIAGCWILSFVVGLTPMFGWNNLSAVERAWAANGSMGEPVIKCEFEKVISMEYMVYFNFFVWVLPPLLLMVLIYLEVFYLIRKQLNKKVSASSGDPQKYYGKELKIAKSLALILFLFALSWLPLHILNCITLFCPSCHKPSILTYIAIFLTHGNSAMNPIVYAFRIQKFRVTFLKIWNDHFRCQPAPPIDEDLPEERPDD
Adenosine receptor A2a (Homo sapiens), sequence (P29274 whole entry): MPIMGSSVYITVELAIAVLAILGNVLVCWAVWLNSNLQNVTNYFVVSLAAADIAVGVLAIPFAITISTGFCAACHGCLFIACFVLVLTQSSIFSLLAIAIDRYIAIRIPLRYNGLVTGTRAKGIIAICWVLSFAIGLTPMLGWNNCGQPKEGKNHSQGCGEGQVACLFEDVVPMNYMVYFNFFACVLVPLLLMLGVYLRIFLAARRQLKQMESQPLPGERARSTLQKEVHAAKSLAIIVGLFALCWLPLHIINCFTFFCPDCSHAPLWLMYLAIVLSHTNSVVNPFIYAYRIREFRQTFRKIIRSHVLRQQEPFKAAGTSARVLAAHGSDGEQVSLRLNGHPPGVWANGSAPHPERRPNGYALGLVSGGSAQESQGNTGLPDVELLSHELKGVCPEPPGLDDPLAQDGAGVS

Structure (SMILES) | Ki [1] | Selectivity ratio [2] | also measured
CNC(=O)[C@H]1O[C@@H](n2cnc3c(NCc4cc(Cl)ccc4OCC(=O)N4CCOCC4)ncnc32)[C@H](O)[C@@H]1N | 20 nM | 700 | 
CNC(=O)[C@H]1O[C@@H](n2cnc3c(NCc4cc(Cl)ccc4OCC(N)=O)ncnc32)[C@H](O)[C@@H]1N | 6.8 nM | 526 | 
CNC(=O)[C@H]1O[C@@H](n2cnc3c(NCc4cc(Cl)cc(Cl)c4)ncnc32)[C@H](O)[C@@H]1O | 2.5 nM | 9.4 | 
CNC(=O)[C@H]1O[C@@H](n2cnc3c(NCc4cc(Cl)ccc4OCC(=O)N4CCC(N(C)C)CC4)ncnc32)[C@H](O)[C@@H]1N | 9.1 nM | 456 | 
CNC(=O)[C@H]1O[C@@H](n2cnc3c(NCc4cc(Cl)ccc4OCC(=O)O)ncnc32)[C@H](O)[C@@H]1N | 130 nM | 222 | 
CNC(=O)[C@H]1O[C@@H](n2cnc3c(NCc4cc(Cl)ccc4OCC(=O)N4CCNCC4)ncnc32)[C@H](O)[C@@H]1N | 9.4 nM | 445 | Activity [3]: 16%; solubility [4]: 50 mg/mL (≈ 89.3 mM); EC50 [5]: 8.1 nM; Activity [6]: 1%
CNC(=O)[C@H]1O[C@@H](n2cnc3c(NCc4cc(OC)ccc4OC)ncnc32)[C@H](O)[C@@H]1N | 160 nM | 294 | 
CNC(=O)[C@H]1O[C@@H](n2cnc3c(NCc4cc(Cl)ccc4OCc4ccccc4)ncnc32)[C@H](O)[C@@H]1N | 16 nM | 691 | 
CNC(=O)[C@H]1O[C@@H](n2cnc3c(NCc4cc(Cl)ccc4OCC(=O)N4CCCCC4)ncnc32)[C@H](O)[C@@H]1N | 18 nM | 720 | 
CNC(=O)[C@H]1O[C@@H](n2cnc3c(NCc4cc(OC)ccc4OC)ncnc32)[C@H](O)[C@@H]1O | 3.9 nM | 45 | 

Second part, led by results:

Ki [1] | Selectivity ratio [2] | Structure (SMILES) | also measured
> 3000 nM |  | CCNC(=O)N[C@H]1[C@@H](O)[C@H](n2cnc3c(NC)ncnc32)O[C@@H]1C(=O)NC | 
15 nM | 317 | CNC(=O)[C@H]1O[C@@H](n2cnc3c(NCc4cc(Cl)ccc4OC)ncnc32)[C@H](O)[C@@H]1N | 
25 nM | 148 | CNC(=O)[C@H]1O[C@@H](n2cnc3c(NCc4cc(Cl)cc(Cl)c4)ncnc32)[C@H](O)[C@@H]1N | 
> 3000 nM |  | CNC(=O)[C@H]1O[C@@H](n2cnc3c(NC)ncnc32)[C@H](O)[C@@H]1NC(C)=O | 
 | 194 | CNC(=O)[C@H]1O[C@@H](n2cnc3c(NC)ncnc32)[C@H](O)[C@@H]1N | 
59 nM | 6 | CNC(=O)[C@@H]1C[C@@H](O)[C@H](n2cnc3c(NC)ncnc32)O1 | 
 | 13 | CNC(=O)[C@H]1O[C@@H](n2cnc3c(NC)ncnc32)[C@H](O)[C@@H]1O | 
87 nM | 12.6 | CNC(=O)[C@H]1O[C@@H](n2cnc3c(NC)ncnc32)C[C@@H]1O | 
> 3000 nM |  | CNC(=O)[C@H]1O[C@@H](n2cnc3c(NC)ncnc32)[C@H](O)[C@@H]1NS(C)(=O)=O | 
